Experiments:
[1] = test system: Epidermal growth factor receptor (Homo sapiens), P00533 [UNDEFINED MUTATION]; settings: Compound concentration 1000.0 nM
[2] = target: Serine/threonine-protein kinase RIO2 (Homo sapiens) (UniProt Q9BVS4); settings: Compound concentration 1000.0 nM
[3] = target: Dual specificity mitogen-activated protein kinase kinase 5 (Homo sapiens) (UniProt Q13163); settings: Compound concentration 1000.0 nM
[4] = target: Aurora kinase A (Homo sapiens) (UniProt O14965); settings: Compound concentration 1000.0 nM
[5] = test system: Tyrosine-protein kinase ABL1 (Homo sapiens), P00519 [Y253F]; settings: Compound concentration 1000.0 nM
[6] = target: Casein kinase I isoform delta (Homo sapiens) (UniProt P48730); settings: Compound concentration 1000.0 nM
[7] = target: D(3) dopamine receptor (Homo sapiens) (UniProt P35462); settings: Compound concentration 10.0 uM
[8] = target: Tyrosine-protein kinase ABL1 (Homo sapiens) (UniProt P00519); settings: Compound concentration 1000.0 nM
[9] = target: Casein kinase I isoform gamma-1 (Homo sapiens) (UniProt Q9HCP0); settings: Compound concentration 1000.0 nM
Chain of Casein kinase I isoform gamma-1 (Homo sapiens) (Q9HCP0 whole entry, looked up, canonical isoform): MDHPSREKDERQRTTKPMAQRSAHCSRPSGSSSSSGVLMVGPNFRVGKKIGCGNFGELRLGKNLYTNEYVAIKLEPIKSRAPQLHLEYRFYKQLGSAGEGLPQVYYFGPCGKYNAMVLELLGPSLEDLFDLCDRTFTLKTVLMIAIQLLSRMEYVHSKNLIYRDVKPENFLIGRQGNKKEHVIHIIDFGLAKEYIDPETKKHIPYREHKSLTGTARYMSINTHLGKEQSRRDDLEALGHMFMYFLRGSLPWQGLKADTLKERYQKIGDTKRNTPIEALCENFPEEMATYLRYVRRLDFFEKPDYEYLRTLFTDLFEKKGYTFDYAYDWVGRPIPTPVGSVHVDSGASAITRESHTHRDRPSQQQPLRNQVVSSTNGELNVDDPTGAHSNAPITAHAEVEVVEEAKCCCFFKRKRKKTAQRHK

[10] = target: Atypical kinase COQ8B, mitochondrial (Homo sapiens) (UniProt Q96D53); settings: Compound concentration 1000.0 nM
[11] = target: Mitogen-activated protein kinase 12 (Homo sapiens) (UniProt P53778); settings: Compound concentration 1000.0 nM
Chain of Mitogen-activated protein kinase 12 (Homo sapiens) (P53778 whole entry): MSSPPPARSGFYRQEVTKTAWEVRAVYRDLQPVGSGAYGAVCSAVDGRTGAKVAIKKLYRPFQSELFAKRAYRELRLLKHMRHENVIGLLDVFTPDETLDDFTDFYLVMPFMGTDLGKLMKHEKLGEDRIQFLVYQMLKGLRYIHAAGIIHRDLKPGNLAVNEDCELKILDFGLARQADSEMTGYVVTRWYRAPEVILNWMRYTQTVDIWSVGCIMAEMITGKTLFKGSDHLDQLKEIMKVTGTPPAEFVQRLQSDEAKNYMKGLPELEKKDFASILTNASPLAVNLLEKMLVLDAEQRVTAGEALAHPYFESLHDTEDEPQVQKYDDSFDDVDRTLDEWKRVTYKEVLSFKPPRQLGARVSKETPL

[12] = target: Serine/threonine-protein kinase 4 (Homo sapiens) (UniProt Q13043); settings: Compound concentration 1000.0 nM
[13] = target: Delta-type opioid receptor (Homo sapiens) (UniProt P41143); settings: Compound concentration 10.0 uM
[14] = test system: Fibroblast growth factor receptor 3 (Homo sapiens), P22607 [G697C]; settings: Compound concentration 1000.0 nM
Chain of Fibroblast growth factor receptor 3 (Homo sapiens), P22607 [G697C] (P22607 whole entry G697C): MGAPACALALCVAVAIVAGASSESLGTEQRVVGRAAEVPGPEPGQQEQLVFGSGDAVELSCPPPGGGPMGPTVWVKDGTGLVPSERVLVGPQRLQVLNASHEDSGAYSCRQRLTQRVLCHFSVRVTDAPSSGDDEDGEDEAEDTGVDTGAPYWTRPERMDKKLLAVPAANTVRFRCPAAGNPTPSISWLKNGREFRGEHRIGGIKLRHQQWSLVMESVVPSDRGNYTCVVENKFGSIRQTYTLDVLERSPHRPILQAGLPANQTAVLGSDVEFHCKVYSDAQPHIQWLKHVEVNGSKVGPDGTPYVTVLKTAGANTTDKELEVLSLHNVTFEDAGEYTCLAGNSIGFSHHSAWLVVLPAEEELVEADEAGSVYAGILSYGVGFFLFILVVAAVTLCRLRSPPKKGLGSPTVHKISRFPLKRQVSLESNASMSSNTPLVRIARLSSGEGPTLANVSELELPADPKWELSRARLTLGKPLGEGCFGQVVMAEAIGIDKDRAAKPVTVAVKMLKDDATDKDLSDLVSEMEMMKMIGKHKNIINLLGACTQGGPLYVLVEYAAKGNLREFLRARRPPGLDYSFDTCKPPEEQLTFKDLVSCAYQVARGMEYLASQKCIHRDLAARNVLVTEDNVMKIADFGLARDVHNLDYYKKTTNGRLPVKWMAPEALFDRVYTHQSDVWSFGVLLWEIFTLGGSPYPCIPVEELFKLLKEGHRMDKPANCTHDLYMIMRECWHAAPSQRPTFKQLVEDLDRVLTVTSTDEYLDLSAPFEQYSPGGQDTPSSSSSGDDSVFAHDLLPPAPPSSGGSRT

[15] = target: Megakaryocyte-associated tyrosine-protein kinase (Homo sapiens) (UniProt P42679); settings: Compound concentration 1000.0 nM
[16] = target: Serine/threonine-protein kinase 35 (Homo sapiens) (UniProt Q8TDR2); settings: Compound concentration 1000.0 nM
[17] = target: Mitogen-activated protein kinase kinase kinase 9 (Homo sapiens) (UniProt P80192); settings: Compound concentration 1000.0 nM
[18] = target: Epithelial discoidin domain-containing receptor 1 (Homo sapiens) (UniProt Q08345); settings: Compound concentration 1000.0 nM
[19] = test system: Phosphatidylinositol 4,5-bisphosphate 3-kinase catalytic subunit alpha isoform (Homo sapiens), P42336 [H1047L]; settings: Compound concentration 1000.0 nM
[20] = target: Ribosomal protein S6 kinase alpha-1 (Homo sapiens) (UniProt Q15418); settings: Compound concentration 1000.0 nM
[21] = target: Serine/threonine-protein kinase TAO3 (Homo sapiens) (UniProt Q9H2K8); settings: Compound concentration 1000.0 nM
[22] = target: Ephrin type-B receptor 6 (Homo sapiens) (UniProt O15197); settings: Compound concentration 1000.0 nM
[23] = target: Serine/threonine-protein kinase SIK3 (Homo sapiens) (UniProt Q9Y2K2); settings: Compound concentration 1000.0 nM
[24] = target: Mitogen-activated protein kinase kinase kinase 15 (Homo sapiens) (UniProt Q6ZN16); settings: Compound concentration 1000.0 nM
[25] = test system: Phosphatidylinositol 4,5-bisphosphate 3-kinase catalytic subunit alpha isoform (Homo sapiens), P42336 [E542K]; settings: Compound concentration 1000.0 nM
[26] = target: Glycogen synthase kinase-3 alpha (Homo sapiens) (UniProt P49840); settings: Compound concentration 1000.0 nM
[27] = target: Ribosomal protein S6 kinase alpha-3 (Homo sapiens) (UniProt P51812); settings: Compound concentration 1000.0 nM
Chain of Ribosomal protein S6 kinase alpha-3 (Homo sapiens) (P51812 whole entry): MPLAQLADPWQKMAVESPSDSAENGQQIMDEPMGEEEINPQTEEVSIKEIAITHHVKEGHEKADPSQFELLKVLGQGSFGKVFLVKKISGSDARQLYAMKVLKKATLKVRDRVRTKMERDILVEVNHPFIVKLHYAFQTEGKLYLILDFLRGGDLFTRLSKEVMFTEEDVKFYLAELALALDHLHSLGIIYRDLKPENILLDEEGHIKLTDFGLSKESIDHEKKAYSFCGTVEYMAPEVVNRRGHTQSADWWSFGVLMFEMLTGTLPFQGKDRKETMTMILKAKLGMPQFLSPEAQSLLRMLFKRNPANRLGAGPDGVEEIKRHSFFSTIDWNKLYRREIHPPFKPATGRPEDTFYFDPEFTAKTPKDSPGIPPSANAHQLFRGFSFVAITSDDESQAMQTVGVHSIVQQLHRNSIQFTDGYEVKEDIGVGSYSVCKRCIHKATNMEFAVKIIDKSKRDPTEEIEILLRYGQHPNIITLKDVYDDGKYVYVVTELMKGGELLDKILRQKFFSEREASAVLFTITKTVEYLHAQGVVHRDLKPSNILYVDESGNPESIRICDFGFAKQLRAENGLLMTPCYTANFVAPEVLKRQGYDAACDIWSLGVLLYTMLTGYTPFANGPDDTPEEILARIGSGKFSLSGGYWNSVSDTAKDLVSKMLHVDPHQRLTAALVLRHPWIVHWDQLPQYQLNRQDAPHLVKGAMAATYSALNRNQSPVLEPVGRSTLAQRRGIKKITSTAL

[28] = target: Ephrin type-B receptor 3 (Homo sapiens) (UniProt P54753); settings: Compound concentration 1000.0 nM
[29] = target: Serine/threonine-protein kinase OSR1 (Homo sapiens) (UniProt O95747); settings: Compound concentration 1000.0 nM
[30] = target: Ephrin type-A receptor 1 (Homo sapiens) (UniProt P21709); settings: Compound concentration 1000.0 nM
[31] = target: cGMP-dependent protein kinase 2 (Homo sapiens) (UniProt Q13237); settings: Compound concentration 1000.0 nM
[32] = target: Calcium-dependent protein kinase 1 (Plasmodium falciparum) (UniProt P62344); settings: Compound concentration 1000.0 nM
[33] = target: Serine/threonine-protein kinase 32B (Homo sapiens) (UniProt Q9NY57); settings: Compound concentration 1000.0 nM
[34] = target: Mitogen-activated protein kinase kinase kinase 4 (Homo sapiens) (UniProt Q9Y6R4); settings: Compound concentration 1000.0 nM
[35] = target: Cyclin-dependent kinase 4 (Homo sapiens) (UniProt P11802); settings: Compound concentration 1000.0 nM
Chain of Cyclin-dependent kinase 4 (Homo sapiens) (P11802 whole entry): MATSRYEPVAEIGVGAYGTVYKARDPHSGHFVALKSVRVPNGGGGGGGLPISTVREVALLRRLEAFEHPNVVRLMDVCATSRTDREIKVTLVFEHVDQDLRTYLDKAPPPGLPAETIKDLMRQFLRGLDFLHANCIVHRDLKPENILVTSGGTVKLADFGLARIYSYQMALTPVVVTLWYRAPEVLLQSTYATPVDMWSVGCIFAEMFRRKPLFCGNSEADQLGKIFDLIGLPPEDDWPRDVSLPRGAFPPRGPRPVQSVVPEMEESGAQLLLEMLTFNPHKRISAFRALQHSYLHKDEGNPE

[36] = target: Cyclin-dependent kinase-like 2 (Homo sapiens) (UniProt Q92772); settings: Compound concentration 1000.0 nM
[37] = target: Mitogen-activated protein kinase kinase kinase 12 (Homo sapiens) (UniProt Q12852); settings: Compound concentration 1000.0 nM
[38] = target: Ephrin type-A receptor 6 (Homo sapiens) (UniProt Q9UF33); settings: Compound concentration 1000.0 nM
Chain of Ephrin type-A receptor 6 (Homo sapiens) (Q9UF33 whole entry): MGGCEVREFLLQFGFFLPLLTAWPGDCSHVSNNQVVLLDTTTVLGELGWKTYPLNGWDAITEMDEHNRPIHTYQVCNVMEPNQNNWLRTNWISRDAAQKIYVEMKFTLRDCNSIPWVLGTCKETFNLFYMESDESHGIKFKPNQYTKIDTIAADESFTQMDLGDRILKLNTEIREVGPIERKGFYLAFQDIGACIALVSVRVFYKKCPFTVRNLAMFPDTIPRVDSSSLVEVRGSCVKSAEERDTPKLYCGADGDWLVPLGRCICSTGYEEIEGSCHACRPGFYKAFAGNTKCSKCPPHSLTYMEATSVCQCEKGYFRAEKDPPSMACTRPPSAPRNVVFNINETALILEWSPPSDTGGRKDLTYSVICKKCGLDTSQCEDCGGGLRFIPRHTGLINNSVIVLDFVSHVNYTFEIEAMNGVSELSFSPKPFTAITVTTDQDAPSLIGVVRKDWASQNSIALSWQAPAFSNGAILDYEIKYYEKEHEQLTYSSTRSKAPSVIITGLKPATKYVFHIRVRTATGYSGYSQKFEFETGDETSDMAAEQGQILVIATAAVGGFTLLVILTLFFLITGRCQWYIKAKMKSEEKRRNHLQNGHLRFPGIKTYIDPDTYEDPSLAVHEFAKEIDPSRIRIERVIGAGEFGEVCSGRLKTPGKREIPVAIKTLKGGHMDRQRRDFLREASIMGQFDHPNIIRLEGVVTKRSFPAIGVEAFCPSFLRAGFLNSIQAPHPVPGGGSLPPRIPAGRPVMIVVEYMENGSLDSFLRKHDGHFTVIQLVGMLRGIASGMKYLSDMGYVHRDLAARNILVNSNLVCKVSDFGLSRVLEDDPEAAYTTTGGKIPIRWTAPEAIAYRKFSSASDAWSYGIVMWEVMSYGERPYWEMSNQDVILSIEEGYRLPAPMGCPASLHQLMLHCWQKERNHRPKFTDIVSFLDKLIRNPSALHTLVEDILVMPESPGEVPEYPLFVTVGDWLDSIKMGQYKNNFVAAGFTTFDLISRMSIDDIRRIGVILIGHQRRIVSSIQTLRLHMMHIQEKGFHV

[39] = test system: Hepatocyte growth factor receptor (Homo sapiens), P08581 [Y1235D]; settings: Compound concentration 1000.0 nM
[40] = target: Serine/threonine-protein kinase TBK1 (Homo sapiens) (UniProt Q9UHD2); settings: Compound concentration 1000.0 nM
[41] = target: Mitogen-activated protein kinase 11 (Homo sapiens) (UniProt Q15759); settings: Compound concentration 1000.0 nM
[42] = target: Insulin receptor (Homo sapiens) (UniProt P06213); settings: Compound concentration 1000.0 nM
Chain of Insulin receptor (Homo sapiens) (P06213 28-758 limits assumed): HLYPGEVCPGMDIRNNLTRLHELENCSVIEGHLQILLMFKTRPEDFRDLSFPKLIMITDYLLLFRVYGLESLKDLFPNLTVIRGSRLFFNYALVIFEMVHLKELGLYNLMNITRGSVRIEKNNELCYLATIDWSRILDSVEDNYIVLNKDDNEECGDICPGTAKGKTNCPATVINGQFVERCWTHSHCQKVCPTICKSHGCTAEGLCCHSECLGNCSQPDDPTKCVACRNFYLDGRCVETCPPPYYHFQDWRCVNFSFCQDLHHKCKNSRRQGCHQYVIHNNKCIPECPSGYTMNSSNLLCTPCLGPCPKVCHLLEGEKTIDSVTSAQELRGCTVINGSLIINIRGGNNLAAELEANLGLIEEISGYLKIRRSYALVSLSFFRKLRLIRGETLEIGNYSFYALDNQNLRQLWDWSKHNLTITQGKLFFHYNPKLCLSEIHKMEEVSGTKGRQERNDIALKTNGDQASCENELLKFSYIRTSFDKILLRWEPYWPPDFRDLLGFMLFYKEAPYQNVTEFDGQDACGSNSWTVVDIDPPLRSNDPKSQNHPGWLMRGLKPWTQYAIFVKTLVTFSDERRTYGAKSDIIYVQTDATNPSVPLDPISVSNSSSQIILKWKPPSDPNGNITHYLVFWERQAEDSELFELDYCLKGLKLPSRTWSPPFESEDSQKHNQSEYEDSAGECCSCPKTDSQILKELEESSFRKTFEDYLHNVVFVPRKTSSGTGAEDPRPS
Chain of Insulin receptor (Homo sapiens) (P06213 763-1382 limits assumed): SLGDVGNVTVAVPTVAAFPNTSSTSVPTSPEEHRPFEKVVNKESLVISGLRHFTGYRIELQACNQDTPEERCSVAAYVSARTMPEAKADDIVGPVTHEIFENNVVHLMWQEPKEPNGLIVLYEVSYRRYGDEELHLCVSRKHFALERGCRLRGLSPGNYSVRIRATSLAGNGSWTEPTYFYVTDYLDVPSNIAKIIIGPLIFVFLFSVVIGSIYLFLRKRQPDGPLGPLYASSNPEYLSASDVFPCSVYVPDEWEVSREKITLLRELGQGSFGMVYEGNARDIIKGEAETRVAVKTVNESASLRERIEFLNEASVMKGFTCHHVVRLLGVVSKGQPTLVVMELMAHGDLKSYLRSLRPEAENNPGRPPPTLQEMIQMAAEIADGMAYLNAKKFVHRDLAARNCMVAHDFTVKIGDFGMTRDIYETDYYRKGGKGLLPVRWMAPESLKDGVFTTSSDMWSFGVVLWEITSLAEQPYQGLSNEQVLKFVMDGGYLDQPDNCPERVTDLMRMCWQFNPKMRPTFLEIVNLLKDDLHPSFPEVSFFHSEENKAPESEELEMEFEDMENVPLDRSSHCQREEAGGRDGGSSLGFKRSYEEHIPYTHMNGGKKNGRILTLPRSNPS

[43] = target: MAP kinase-activated protein kinase 2 (Homo sapiens) (UniProt P49137); settings: Compound concentration 1000.0 nM
[44] = target: Calcium/calmodulin-dependent protein kinase type 1G (Homo sapiens) (UniProt Q96NX5); settings: Compound concentration 1000.0 nM
[45] = target: Mitogen-activated protein kinase 9 (Homo sapiens) (UniProt P45984); settings: Compound concentration 1000.0 nM

Cc1nc(Cc2cccc(C(F)(F)F)c2)sc1-c1ccc(C(N)=O)nc1 [TP-024n]
inactive: residual activity [1] 83% | residual activity [2] 98% | residual activity [3] 85% | residual activity [4] 100% | residual activity [5] 88% | residual activity [6] 75% | inhibition [7] 6.21% | residual activity [8] 95% | residual activity [9] 97% | residual activity [10] 100% | residual activity [11] 100% | residual activity [12] 100% | inhibition [13] 4.01% | residual activity [14] 76% | residual activity [15] 100% | residual activity [16] 100% | residual activity [17] 100% | residual activity [18] 100% | residual activity [19] 72% | residual activity [20] 100% | residual activity [21] 83% | residual activity [22] 100% | residual activity [23] 75% | residual activity [24] 100% | residual activity [25] 66% | residual activity [26] 82% | residual activity [27] 99% | residual activity [28] 100% | residual activity [29] 100% | residual activity [30] 81% | residual activity [31] 84% | residual activity [32] 100% | residual activity [33] 69% | residual activity [34] 72% | residual activity [35] 99% | residual activity [36] 92% | residual activity [37] 100% | residual activity [38] 96% | residual activity [39] 91% | residual activity [40] 91% | residual activity [41] 95% | residual activity [42] 95% | residual activity [43] 100% | residual activity [44] 99% | residual activity [45] 100%

Cc1cc(-n2nc(Cc3cc(F)cc(C(F)(F)F)c3)nc2C)ccc1C(N)=O [TP-024]
inactive: residual activity [1] 83% | residual activity [2] 100% | residual activity [3] 100% | residual activity [4] 99% | residual activity [5] 90% | residual activity [6] 100% | inhibition [7] 3.4% | residual activity [8] 97% | residual activity [9] 100% | residual activity [10] 100% | residual activity [11] 100% | residual activity [12] 100% | inhibition [13] -1.45% | residual activity [14] 100% | residual activity [15] 100% | residual activity [16] 100% | residual activity [17] 100% | residual activity [18] 86% | residual activity [19] 87% | residual activity [20] 100% | residual activity [21] 83% | residual activity [22] 100% | residual activity [23] 83% | residual activity [24] 100% | residual activity [25] 73% | residual activity [26] 97% | residual activity [27] 100% | residual activity [28] 100% | residual activity [29] 91% | residual activity [30] 100% | residual activity [31] 86% | residual activity [32] 100% | residual activity [33] 100% | residual activity [34] 98% | residual activity [35] 100% | residual activity [36] 100% | residual activity [37] 100% | residual activity [38] 100% | residual activity [39] 90% | residual activity [40] 89% | residual activity [41] 90% | residual activity [42] 99% | residual activity [43] 100% | residual activity [44] 100% | residual activity [45] 81%
